In patent US20130030045A1, “METHOD OF PREVENTING AND TREATING OSTEOPOROSIS” (priority 2011, published 2013):
Like-named read-outs stand apart in the source and are kept apart here.

Key:
MBMMφ cells [1] = test: TRAP activity assay, differentiation of MBMMφ cells induced with RANKL and M-CSF; assay type: cell-based, mouse; conditions: for IC50: Mus musculus, 2 days with compound, then 20 ng/ml RANKL and 10 ng/ml M-CSF for 5 days, read-out: IC50, s-TRAP activity (inhibition of differentiation of MBMMφ cells)
Method: In some embodiments of the present invention, preosteoclast cells used are obtained from bone marrow in hind leg bone of C57BL/6J Narl mice, called as MBMMφ cells (mouse bone marrow macrophages), and are cultured in alpha-MEM medium (including 10% FBS and 1× antibiotic-antimycotic solution) and then added with M-CSF (macrophage colony-stimulating factor) and RANKL (receptor for activation of nuclear factor kappa B ligand) for inducing cell differentiation and maturation.
(§1) The cultured medium for cells derived from MBMMφ differentiation is removed, and cells are added with new medium. After incubation for 1 hour, and the activity of secretory type acid phosphatase in the medium is measured. First, 30 μl medium to be measured is taken out and added with […] TRAP assay reagent (0.1 M acetate buffer, 60 mM sodium tartrate and 5 mg/ml pNPP) followed by incubating for 30 minutes at 37° C., then adding 60 μl 0.5N NaOH solution to terminate the reaction and OD value at 405 nm of each specimen being measured.
In an embodiment, different concentrations of flavone (chemical structure as shown in FIG. 2(A)), 6-methoxy flavone (FIG. 2(B)), 7-methoxy flavone (FIG. 2(C)), 6-hydroxy flavone (FIG. 2(D)) and 7-hydroxy flavone (FIG. 2(E)) are respectively added into the cultured medium of MBMMφ cells, which had been cultured in 10 ng/ml M-SCF without treating with flavone components for 5 days, for 2 days. Next, after adding 20 ng/ml RANKL and 10 ng/ml M-CSF to induce cell differentiation for another 5 days, TRAP activity assay is performed.

MC3T3-E1 cells [2] = test: Alkaline phosphatase (ALP) assay, differentiation of MC3T3-E1 cells; assay type: cell-based; conditions: 4 days
Method: In experiments, 10,000 cells/well are cultured with alpha-MEM medium (including 10% FBS and 1× antibiotic-antimycotic solution) for 4 days at 37° C. in 5% CO2 incubator. After adding different concentrations of methoxy flavones or hydroxy flavones to react for 4 days, the cultured medium is removed and 100 μl 4% formaldehyde is added to fix cells for 10 minutes. After washing cells, 30 μl p-nitrophenyl phosphate (pNPP) solution is added to react for 30 minutes at 37° C., and then 30 μl 0.5 N NaOH is added to stop the reaction. Finally, OD value is measured at […] using ELISA reader.
In an embodiment, different concentrations of 6-methoxy flavone and 7-methoxy flavone are respectively added into MC3T3-E1 cells (a kind of preosteoblast cells) in alpha-MEM medium (containing 10% FBS, 1× antibiotic-antimycotic solution, 10 mM β-glycerophsphate, 50 μg/ml VitC, 10^−7 M dexamethasone) for 4 days to induce cell osteogenic differentiation and maturation. Because differentiated MC3T3-E1 cells will express the ALP activity, ALP activity assay is used to know the extent of cell differentiation. FIGS. 5(A) and 5(B) illustrate ALP activities at four different concentrations (1.25 μM, 2.5 μM, 5 μM, 10 μM) of 6-methoxy flavone and 7-methoxy flavone, respectively, in comparison with controls (with only PBS, or without 6-methoxy flavone or 7-methoxy flavone but with equal volume of vehicle, DMSO).
In still another embodiment, different concentrations (0.4 μM, 2 μM, 10 μM, 50 μM) of flavone, 7-methoxy flavone and 6-hydroxy flavone are respectively added into MC3T3-E1 cells in alpha-MEM medium with 10% FBS, 1× antibiotic-antimycotic solution, 10 mM β-glycerophsphate, 50 μg/ml Vitamin C, and 10^−7 M dexamethasone for 4 day incubation to induce cell differentiation and maturation. FIGS. 7(A)-7(C) illustrate ALP activities of MC3T3-E1 cells after exposed to four different concentrations of flavone, 7-methoxy flavone and 6-hydroxy flavone, respectively, in comparison with control (without flavone, 7-methoxy flavone or 6-hydroxy flavone, but with vehicle DMSO).

MC3T3-E1 cells [3] = test: MTT assay, MC3T3-E1 cell growth; conditions: 1 day
Excerpt: In an embodiment, different concentrations of flavone, 6-methoxy flavone, 7-methoxy flavone, 6-hydroxy flavone and 7-hydroxy flavone are respectively added into 3,000 MC3T3-E1 cells per well in the cultured medium for 1 day.

SaOS-2 cells = test: Calcium staining for calcium deposition (CaP assay) of SaOS-2 cells; assay type: cell-based, human; conditions: 10 μM, 7 day; data not shown
[4] = test system: human mesenchymal stem cells (hMSCs); test: Calcein fluorescent test for calcium precipitation, osteogenesis of human mesenchymal stem cells; assay type: cell-based; conditions: FIG. 10, calcein fluorescent test
Excerpt: FIGS. 10(A)-10(D) respectively illustrate the effects of 6-methoxy flavone, 7-methoxyl flavone, 7-hydroxy flavone, and 6-hydroxy flavone on the osteogenesis of human mesenchymal stem cells, based on calcein fluorescent test for calcium precipitation.
Moreover, the present invention also measures the effects of methoxy flavones and hydroxyl flavones on human mesenchymal stem cells (hMSCs).

MBMMφ cells [5] = test: MTT assay, MBMMφ cell growth
Method: (§2) In an embodiment, different concentrations (0 μM, 1 μM, 5 μM, 10 μM, 15 μM, 20 μM, and 25 μM) of 7-methoxy flavone are respectively added into 3,000 MBMMφ cells/well in the cultured medium containing M-CSF for 1 day incubation. Next, MTT reagent is used to detect the OD value of cells so as to determine the growth situation of MBMMφ cells.

RAW 264.7 cells [6] = test: Toxicity to RAW 264.7 cells; assay type: cell-based, mouse; conditions: data not shown
RAW 264.7 cells [7] = test: TRAP activity assay, differentiation of RAW 264.7 cells; assay type: cell-based, mouse; conditions: at 8 μM, 16 μM, and 32 μM; compared to control
Method: as §1
In another embodiment, different concentrations of 7-methoxy flavone are respectively added into the cultured medium of RAW 264.7 cells (mouse leukaemic monocyte macrophages, another kind of preosteoclast cells) for 2 days. Next, after adding 20 ng/ml
RANKL and 10 ng/ml M-CSF to induce RAW 264.7 cell differentiation for 3 days, TRAP activity assay is then performed.

MC3T3-E1 cells [8] = test: Alizarin Red S stain, calcium deposition of MC3T3-E1 cells; assay type: cell-based; conditions: at 5 μM, 10 μM, 20 μM and 40 μM; 20 days
Method: In an embodiment, different concentrations (2.5 μM, 5 μM, 10 μM, 20 μM and 40 μM) of 7-methoxy flavone are respectively added into the cultured medium of MC3T3-E1 cell incubated for 20 days, wherein the cultured medium with 7-methoxy flavone is changed every 4 days. Next, Alizarin Red S stain is used to observe the calcification situation of MC3T3-E1 cells, and OD value at 562 nm is measured for quantitative analysis.

MBMMφ cells [9] = test system: MBMMφ cells
Method: as §2

[10] = at the concentration of equal to or larger than 10 μM
[11] = at the concentration of equal to or larger than 5 μM

| SMILES | IC50 (MBMMφ cells [1]) | effect on differentiation of MBMMφ cells (s-TRAP activity) (MBMMφ cells [1]; [10]) | effect on differentiation of MC3T3-E1 cells (ALP activity) (MC3T3-E1 cells [2]; at 4 μM and 16 μM, FIG. 6) | effect on differentiation of MC3T3-E1 cells (ALP activity) (MC3T3-E1 cells [2]; at 10 μM and 50 μM, FIG. 7) | growth of MC3T3-E1 cells (MTT, cytotoxicity) (MC3T3-E1 cells [3]; mouse) | calcium deposition of SaOS-2 cells (SaOS-2 cells) | calcium deposition of hMSCs [4] | growth of MBMMφ cells (MTT, cytotoxicity) (MBMMφ cells [5]; not shown) | effect on differentiation of MBMMφ cells (s-TRAP activity) (MBMMφ cells [1]; [11]) | effect on differentiation of MC3T3-E1 cells (ALP activity) (MC3T3-E1 cells [2]; at 5 μM and 10 μM, FIG. 5) | effect on differentiation of MC3T3-E1 cells (ALP activity) (MC3T3-E1 cells [2]; at 16 μM, FIG. 6) | growth of MC3T3-E1 cells (MTT, cytotoxicity) (MC3T3-E1 cells [3]; different concentrations, FIG. 8) | toxicity to RAW 264.7 cells (RAW 264.7 cells [6]) | effect on differentiation of RAW 264.7 cells (TRAP activity) (RAW 264.7 cells [7]) | growth of MBMMφ cells (MTT, cytotoxicity) (MBMMφ cells [5]; 0-25 μM, 1 day incubation, medium containing M-CSF) | calcium deposition of MC3T3-E1 cells (Alizarin Red S, OD 562 nm) (MC3T3-E1 cells [8]) | effect on differentiation of MBMMφ cells (s-TRAP activity) (MBMMφ cells [1]; 1 μM, 5 μM, 10 μM, 20 μM, in comparison with control) | effect on differentiation of MC3T3-E1 cells (ALP activity) (MC3T3-E1 cells [2]; 0.25 μM, 1 μM, 4 μM, 16 μM, FIG. 6) | effect on differentiation of MC3T3-E1 cells (ALP activity) (MC3T3-E1 cells [2]; 0.4 μM, 2 μM, 10 μM, 50 μM, FIG. 7) | growth of MBMMφ cells (MTT, cytotoxicity) (MBMMφ cells [9]) |
| --- | --- | --- | --- | --- | --- | --- | --- | --- | --- | --- | --- | --- | --- | --- | --- | --- | --- | --- | --- | --- |
| O=c1cc(-c2ccccc2)oc2ccc(O)cc12 [6-hydroxy flavone] | 7.3 ± 0.2 µM | significantly inhibit the differentiation of MBMMφ cells | significantly stimulate the differentiation of MC3T3-E1 cells | obviously stimulate the differentiation of MC3T3-E1 cells | do not affect the growth of MC3T3-E1 cells | significantly enhance calcium deposition of SaOS-2 cells | does not inhibit calcium deposition even at high concentration | do not influence the growth of MBMMφ cells |  |  |  |  |  |  |  |  |  |  |  |  |
| COc1ccc2oc(-c3ccccc3)cc(=O)c2c1 [6-methoxy flavone] | 5.4 ± 0.2 µM |  |  |  | do not affect the growth of MC3T3-E1 cells |  | greatly inhibits calcium deposition of hMSCs | do not influence the growth of MBMMφ cells | manifestly inhibit the differentiation of MBMMφ cells | efficiently enhance the differentiation of MC3T3-E1 cells |  |  |  |  |  |  |  |  |  |  |
| O=c1cc(-c2ccccc2)oc2cc(O)ccc12 [7-hydroxy flavone] | 10.9 ± 1.3 µM | significantly inhibit the differentiation of MBMMφ cells |  |  |  | significantly enhance calcium deposition of SaOS-2 cells | inhibit calcium deposition on hMSCs only at high concentration | do not influence the growth of MBMMφ cells |  |  | enhance effectively the cell differentiation | do not affect the growth of MC3T3-E1 cells |  |  |  |  |  |  |  |  |
| COc1ccc2c(=O)cc(-c3ccccc3)oc2c1 [7-methoxy flavone] | 7.1 ± 0.6 µM |  | significantly stimulate the differentiation of MC3T3-E1 cells | obviously stimulate the differentiation of MC3T3-E1 cells | do not affect the growth of MC3T3-E1 cells | significantly enhance calcium deposition of SaOS-2 cells | inhibit calcium deposition on hMSCs only at high concentration |  | manifestly inhibit the differentiation of MBMMφ cells | efficiently enhance the differentiation of MC3T3-E1 cells |  |  | no toxicity to RAW 264.7 cells | significantly inhibit the differentiation of RAW 264.7 cells | does not affect the growth of MBMMφ cells | effectively enhance calcium deposition of MC3T3-E1 cells |  |  |  |  |
| O=c1cc(-c2ccccc2)oc2ccccc12 [flavone, reference compound] | > 20 µM |  |  |  | do not affect the growth of MC3T3-E1 cells |  |  |  |  |  |  |  |  |  |  |  | does not have obvious effect | does not stimulate the differentiation of MC3T3-E1 cells | does not significantly stimulate the differentiation of MC3T3-E1 cells | do not influence the growth of MBMMφ cells |
